As a reminder, the IC50 is the midpoint of a concentration-inhibition curve.

Test [1] has as its target T1, Endothelin receptor type B (Homo sapiens, UniProt P24530).
T1 sequence (P24530 whole entry): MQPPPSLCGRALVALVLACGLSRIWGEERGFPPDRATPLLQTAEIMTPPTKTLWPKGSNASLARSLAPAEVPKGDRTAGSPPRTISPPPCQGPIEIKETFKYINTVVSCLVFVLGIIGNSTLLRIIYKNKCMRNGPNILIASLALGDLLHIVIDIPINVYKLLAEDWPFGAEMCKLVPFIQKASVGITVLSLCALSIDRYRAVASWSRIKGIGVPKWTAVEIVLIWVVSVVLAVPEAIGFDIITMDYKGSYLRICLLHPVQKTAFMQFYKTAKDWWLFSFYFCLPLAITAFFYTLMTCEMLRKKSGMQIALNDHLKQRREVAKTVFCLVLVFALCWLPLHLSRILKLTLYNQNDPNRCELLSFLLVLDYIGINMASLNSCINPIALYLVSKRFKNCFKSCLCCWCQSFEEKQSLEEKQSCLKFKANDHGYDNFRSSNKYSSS
The test is described as follows: Receptor binding affinity was determined against [125I]ET1 with membranes prepared from human placenta for ETB receptor.

Test [2] concerns the target T2, Endothelin-1 receptor (Homo sapiens, UniProt P25101).
T2 sequence (P25101 whole entry): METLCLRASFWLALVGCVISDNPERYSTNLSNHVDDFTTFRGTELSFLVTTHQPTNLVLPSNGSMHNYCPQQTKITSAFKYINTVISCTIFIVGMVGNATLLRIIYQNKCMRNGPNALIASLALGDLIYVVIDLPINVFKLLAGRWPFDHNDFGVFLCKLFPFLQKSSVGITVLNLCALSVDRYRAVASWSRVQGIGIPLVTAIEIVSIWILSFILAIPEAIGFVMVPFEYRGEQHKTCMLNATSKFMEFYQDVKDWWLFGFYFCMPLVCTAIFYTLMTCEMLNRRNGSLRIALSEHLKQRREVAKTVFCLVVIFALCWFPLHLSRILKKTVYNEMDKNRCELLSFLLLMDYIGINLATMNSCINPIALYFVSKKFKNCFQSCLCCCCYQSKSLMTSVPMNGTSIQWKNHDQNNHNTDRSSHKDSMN
The test is described as follows: Receptor binding affinity was determined against [125I]ET1 with recombinant human ETA receptor, expressed in baculovirus-infected Sf9 cells.

The target in test [3] is T3, Endothelin-1 receptor (Rattus norvegicus, UniProt P26684).
T3 sequence (P26684 whole entry): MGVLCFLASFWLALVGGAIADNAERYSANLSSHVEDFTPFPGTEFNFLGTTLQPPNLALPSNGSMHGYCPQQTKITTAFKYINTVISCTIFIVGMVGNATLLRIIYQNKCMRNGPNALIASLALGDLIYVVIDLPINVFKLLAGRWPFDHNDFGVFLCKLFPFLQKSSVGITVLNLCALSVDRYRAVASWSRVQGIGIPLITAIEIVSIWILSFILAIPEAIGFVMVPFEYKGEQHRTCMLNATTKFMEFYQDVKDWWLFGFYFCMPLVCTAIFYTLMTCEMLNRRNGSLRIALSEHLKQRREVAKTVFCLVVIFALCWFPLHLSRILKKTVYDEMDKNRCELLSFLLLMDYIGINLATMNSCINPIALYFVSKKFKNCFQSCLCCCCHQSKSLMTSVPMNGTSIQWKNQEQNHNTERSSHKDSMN
The test is described as follows: Evaluation for functional inhibitory potency prevention of ET-1 induced constriction of rat aortic rings (ETA receptors). The conditions noted are these: read-out: pA2 (converted).

The target in test [4] is T4, Endothelin receptor type B (Rattus norvegicus, UniProt P21451).
T4 sequence (P21451 whole entry): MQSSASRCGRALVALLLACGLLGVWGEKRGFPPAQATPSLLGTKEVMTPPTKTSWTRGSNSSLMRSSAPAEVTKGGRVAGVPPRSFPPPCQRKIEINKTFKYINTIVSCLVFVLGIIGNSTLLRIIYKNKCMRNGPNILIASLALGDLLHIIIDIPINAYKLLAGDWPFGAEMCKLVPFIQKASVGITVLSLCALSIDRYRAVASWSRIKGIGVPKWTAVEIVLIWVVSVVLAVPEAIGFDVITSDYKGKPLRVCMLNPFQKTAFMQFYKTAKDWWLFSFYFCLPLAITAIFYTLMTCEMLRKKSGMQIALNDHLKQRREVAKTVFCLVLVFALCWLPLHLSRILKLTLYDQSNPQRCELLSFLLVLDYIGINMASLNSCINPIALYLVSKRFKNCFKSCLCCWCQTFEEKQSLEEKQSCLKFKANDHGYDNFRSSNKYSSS
The test is described as follows: Compound was evaluated for in vitro functional inhibitory potency for prevention of sarafotoxin S6c induced constriction of rat tracheal rings (ETB receptors). The conditions noted are these: read-out: pA2 (converted).

In test [5] the target is T3, Endothelin-1 receptor. The test is described as follows: Compound was evaluated for in vitro functional inhibitory potency for prevention of ET-1 induced constriction of rat aortic rings (ETA receptors). The conditions noted are these: read-out: pA2 (converted).
Test [6] deals with T2, Endothelin-1 receptor. Description: Receptor binding affinity was determined in a radioligand binding assay against [125I]ET1 with recombinant human ETA receptor, expressed in baculovirus-infected […] cells.

For the compound `COc1ccccc1Oc1c(NS(=O)(=O)c2ccc(C(C)(C)C)cc2)nc(C)nc1OCCOC(=O)Nc1ccccn1`, the IC50 is 120 nM in test [1] and 8 nM in test [2].

As to `COc1ccccc1Oc1c(NS(=O)(=O)c2ccc(C(C)(C)C)cc2)nc(N2CCOCC2)nc1OCCOC(=O)Nc1ccccn1`, the concentration for half-maximal inhibition (IC50) in test [1] turned out to be 19 nM; in test [2] it was 17 nM. In test [3], the Kb was 10 nM.

Regarding `COc1ccccc1Oc1c(NS(=O)(=O)c2ccc(C(C)(C)C)cc2)nc(-c2ncccn2)nc1OCCO` [BOSENTAN], the Kb was 1580 nM in test [4] and 50.1 nM in test [5].

In the case of `COc1ccccc1Oc1c(NS(=O)(=O)c2ccc(C(C)(C)C)cc2)nc(-c2cccs2)nc1OCCOC(=O)Nc1ccccn1`, the IC50 in test [1] came out at 200 nM; in test [2], 30 nM. The Kb in test [3] is 10 nM.

Consider `COc1ccccc1Oc1c(NS(=O)(=O)c2ccc(C(C)(C)C)cc2)nc(-c2ncccn2)nc1OCCOC(=O)Nc1ccccn1`, for which the IC50 in test [1] stood at 43 nM. The Kb in test [3] was 1 nM.

For `COc1ccccc1Oc1c(NS(=O)(=O)c2ccc(C(C)(C)C)cc2)nc(C(C)C)nc1OCCOC(=O)Nc1ccccn1`, the IC50 is 160 nM in test [1] and 7 nM in test [2]. Besides, the Kb in test [3] is 15.8 nM.

With `COc1ccccc1Oc1c(NS(=O)(=O)c2ccc(C(C)(C)C)cc2)nc(C(C)(C)C)nc1OCCOC(=O)Nc1ccccn1`, the IC50 was 144 nM in test [1] and 14 nM in test [2]. Further, the Kb in test [3] is 25.1 nM.

With `COc1ccccc1Oc1c(NS(=O)(=O)c2ccc(C(C)(C)C)cc2)nc(C)nc1OCCOC(=O)c1cccnc1`, the IC50 stood at 770 nM in test [1] and 880 nM in test [2].

Consider `COc1ccccc1Oc1c(NS(=O)(=O)c2ccc(C(C)(C)C)cc2)nc(C)nc1OCCOC(=O)c1ccoc1`, for which the values for the IC50 in test [1] and in test [2] were 1000 nM and 1100 nM, respectively.

Consider `CNCC(=O)OCCOc1nc(C)nc(NS(=O)(=O)c2ccc(C(C)(C)C)cc2)c1Oc1ccccc1OC`, for which the values for the IC50 in test [1] and in test [2] were 300 nM and 1700 nM, respectively.

As to `COc1ccccc1Oc1c(NS(=O)(=O)c2ccc(C)cn2)nc(N2CCOCC2)nc1OCCOC(=O)Nc1ccccn1`, the 50% inhibitory concentration (IC50) was 25 nM in test [1] and 0.2 nM in test [2]. Also, the Kb in test [3] was 0.2 nM.

On to `COc1ccccc1Oc1c(NS(=O)(=O)c2ccc(C)cn2)nc(-c2ncccn2)nc1OCCOC(=O)Nc1ccccn1`, for which the IC50 worked out at 170 nM in test [1] and 4 nM in test [2]. Besides, the Kb in test [3] is 1 nM.

For the compound `COc1ccccc1Oc1c(NS(=O)(=O)c2ccc(C(C)(C)C)cc2)nc(C2CC2)nc1OCCOC(=O)Nc1ccccn1`, the IC50 in test [1] was found to be 60 nM; in test [2], 7 nM. Moreover, the Kb in test [3] is 20 nM.

Regarding `CCCc1nc(NS(=O)(=O)c2ccc(C(C)(C)C)cc2)c(Oc2ccccc2OC)c(OCCOC(=O)Nc2ccccn2)n1`, the half-inhibitory concentration (IC50) is 63 nM in test [1] and 9 nM in test [2]. Further, in test [3], the Kb is 12.6 nM.

As to `COc1ccccc1Oc1c(NS(=O)(=O)c2ccc(C(C)C)cn2)nc(-c2ncccn2)nc1OCCOC(=O)Nc1ccccn1`, the IC50 in test [1] turned out to be 49 nM; in test [2] it was 4 nM. Also, the Kb in test [3] was 0.1 nM.

For the compound `COc1ccccc1Oc1c(NS(=O)(=O)c2ccc(C(C)(C)C)cc2)nc(C)nc1OCCOC(=O)Nc1ccncc1`, the 50% inhibitory concentration (IC50) turned out to be 2800 nM in test [1] and 1900 nM in test [2].

For the compound `COc1ccccc1Oc1c(NS(=O)(=O)c2ccc(C(C)(C)C)cc2)nc(C)nc1OCCNC(=O)Nc1ccccn1`, the IC50 worked out at 1240 nM in test [1] and 80 nM in test [2].

Consider `COc1ccccc1Oc1c(NS(=O)(=O)c2ccc(C(C)(C)C)cc2)nc(C)nc1OCCO`, for which the half-inhibitory concentration (IC50) stood at 70 nM in test [1] and 1500 nM in test [2].

As for `COc1ccccc1Oc1c(NS(=O)(=O)c2ccc(C(C)C)cn2)nc(N2CCCCC2)nc1OCCOC(=O)Nc1ccccn1`, the IC50 in test [1] was 25 nM; in test [2] it was 3 nM. Further, the Kb in test [3] was 5.01 nM.

On to `COc1ccccc1Oc1c(NS(=O)(=O)c2ccc(C(C)C)cn2)nc(N2CCOCC2)nc1OCCOC(=O)Nc1ccccn1`, for which the IC50 was determined as 5 nM in test [1], 0.7 nM in test [6] and 0.3 nM in test [2]. Further, the Kb in test [4] is 25.1 nM; in test [5], 0.501 nM.

Turning to `COc1ccccc1Oc1c(NS(=O)(=O)c2ccc(C(C)(C)C)cc2)nc(C)nc1OCCOC(=O)Nc1cccnc1`, the results for the half-inhibitory concentration (IC50) in test [1] and in test [2] were 700 nM and 900 nM, respectively.

Turning to `COc1ccccc1Oc1c(NS(=O)(=O)c2ccc(C(C)C)cn2)nc(N2CCSCC2)nc1OCCOC(=O)Nc1ccccn1`, the IC50 in test [1] turned out to be 14 nM; in test [2], 1 nM. For the same compound, in test [3], the Kb is 1.58 nM.

The values are drawn from ChEMBL document CHEMBL1130517 (Bioorg Med Chem Lett, 1997).
